In assay [1] the test system is C2C12 myotubes. Kind of assay: Fura-2 Ca2+ ratios in C2C12 myotubes, functional screen with TRPV agonists. It is filed as cell-based. The note with it: for intracellular (cytosolic) Ca2+ rise: Fura-2 Ca2+ ratios. The method, then:
FIG. 2. Fura-2 Ca^2+ Ratios in C2C12 myotubes in response to known activators of TRPV1 (Capsaicin), TRPV3 (Thymol, Carvacrol, 2-APB), and TRPV4 (GSK 101). ** p<0.01 compared to vehicle Ca^2+ response.
To determine the physiological significance of these TRPV ion channels in skeletal muscle Ca^2+ homeostasis, a functional screen for the magnitude of intracellular Ca^2+ rise was performed using known agonists for TRPV1 (Capsaicin), TRPV3 (Carvacrol/Thymol/2-APB) and TRPV4 (GSK101) in C2C12 myotubes (FIG. 2). C2C12 myoblasts were grown to confluency and then differentiated into myotubes by culturing in Dulbecco's Modified Eagles Medium (DMEM) with 2% horse serum for 5 days. Measurement of Fura-2 Ca2+ ratios in C2C12 myotubes was performed as described previously in cultured adipocytes (Ye L., et al., TRPV4 is a regulator of adipose oxidative metabolism, inflammation, and energy homeostasis. Cell. 2012; 151:96-110).

For a further assay, the system named is IGF-1. Kind of assay: qRT-PCR transcriptional screen in C2C12 myotubes: IGF-1. Format: cell-based. The note with it: 48 hrs. Here is the method:
(§1) FIG. 5. […] A. fold change after 48 hrs carvacrol (0, 5, and 100 μM, from left to right for each grouping); and B. thymol (0, 5, and 50 μM, from left to right for each grouping).
(§2) A qRT-PCR based transcriptional screen was then performed to assess for induction of the classical genes associated with exercise-induced changes in skeletal muscle, including growth, and enhanced endurance (FIG. 5). Transcriptional analysis of candidate genes was performed as described previously (Sah R., et al., The Timing of Myocardial Trpm7 Deletion during Cardiogenesis Variably Disrupts Adult Ventricular Function, Conduction and Repolarization. Circulation. 2013; Sah R., et al., Ion channel-kinase TRPM7 is required for maintaining cardiac automaticity. Proc Natl Acad Sci USA. 2013; 110:E3037-46) using the following primers: […]

Assay [2] deals with flexor digitorum brevis (FDB) muscle fibers. Nature of the assay: Confocal calcium imaging (Fluo-4AM) of freshly isolated FDB muscle fibers. The note with it: for effects on Ca2+ cycling: freshly isolated muscle fibers, carvacrol 100, 200, 500 μM, thymol 50, 100, 200 μM. It is filed as cell-based, mouse. The method, then:
FIG. 3. Confocal calcium imaging (Fluo-4AM) of freshly isolated mouse flexor digitorum brevis (FDB) muscle fibers in response to sequential applications of carvacrol (A: 100, 200 and 500 μM) and thymol (B: 50, 100 and 200 μM).
These findings were further validated in freshly isolated mouse flexor digitorum brevis (FDB) muscle fibers (FIG. 3) to confirm the result in primary muscle cells. Primary skeletal muscle fibers were isolated from flexor digitorum brevis (FDB) muscle. In brief, FDB muscles were dissected and mechanically cleaned of connective tissue in a standard Ringer's solution containing (in mM): 146 NaCl, 5 KCl, 2 CaCl2, 1 MgCl2, and 10 HEPES, pH 7.4 with NaOH. Muscles were then shaken for 40 min at 37° C. in 1 mg/ml of collagenase A (Roche) dissolved in Ringer's solution. After collagenase treatment, individual FDB fibers were dissociated by gentle trituration using Pasteur pipettes of decreasing bore size. […] All experiments were conducted at room temperature on fibers obtained within 8 h of isolation. Confocal calcium imaging of FDB fibers were performed as described previously in cardiac myocytes but at room temperature (23° C.) (Sah R., et al., Ion channel-kinase TRPM7 is required for maintaining cardiac automaticity. Proc Natl Acad Sci USA. 2013; 110:E3037-46).

The test system of another assay is PGC1α. Kind of assay: qRT-PCR transcriptional screen in C2C12 myotubes: PGC1α. Format: cell-based. Particulars: 48 hrs. Here is the method:
as §1, §2
In general terms: Quantitative PCR measures a nucleic acid by following its amplification.

The subject of assay [3] is C2C12 myotubes. Kind of assay: Myotube hypertrophy by immunostaining and confocal imaging (myotube diameter). Particulars: 50 μM for 48 hours. It is filed as cell-based. Here is the method: FIG. 4. A. Confocal images immunostained C2C12 myotubes (staining skeletal actin and Topro-3 nuclear stain) incubated for 48 hrs in vehicle (left) or carvacrol 50 μM (right). B. quantification of myotube width. NT—not treated, Vehicle—DMSO.
It was next examined whether the increase in cytosolic Ca^2+ induced by this class of compounds could induce cellular hypertrophy in vitro in C2C12 myotubes as would occur with augmented Ca^2+ release during exercise. Immunostaining and confocal imaging of C2C12 myotubes were performed as described previously in cardiac myocytes (Sah R., et al., The Timing of Myocardial Trpm7 Deletion during Cardiogenesis Variably Disrupts Adult Ventricular Function, Conduction and Repolarization. Circulation. 2013).

The subject of assay [4] is C57/B6 mice. Nature of the assay: Skeletal muscle hypertrophy by muscle weight. Format: in vivo, mouse. Particulars: sedentary C57/B6 mice, 20 mg/kg/day oral gavage, 5 weeks. Here is the method:
FIG. 8: Skeletal muscle weight in sedentary C57/B6 mice after 5 weeks of treatment with either vehicle or thymol (for each group, the left bar represents vehicle and the right bar represents thymol).
(§3) Based on these strong in vitro data, in vivo studies were then performed to determine both safety and efficacy of using thymol and/or carvacrol to mimic the effects of exercise on skeletal muscle function. […] Accordingly, the pilot studies were limited to thymol alone and treated sedentary C57/B6 mice with either vehicle (Sunflower oil) or Thymol (20 mg/kg/day) by oral gavage for 5 weeks and then assessed exercise capacity by treadmill testing, core body temperature by infra-red thermal imaging, and skeletal muscle hypertrophy by muscle weight. […] J Gen Physiol. 2014; 143:119-34)) after mild exercise (FIG. 7) and an increase in gastrocnemius muscle weight (weight bearing muscles—FIG. 8).

For a further assay, the system named is TRPV3 knock-out mice. Kind of assay: In vivo experiments repeated in TRPV3 knock-out mice. Also on record: species or system mouse. Particulars: TRPV3 KO mice, 20 mg/kg/day, 5 weeks. The method, then:
FIG. 9: Exercise tolerance measured by treadmill testing of TRPV3 KO mice before and after 5 weeks of either vehicle or thymol (20 mg/kg/day). A. Exercise protocol and tolerance after vehicle or thymol. B. Mean exercise tolerance pre and post treatment.
as §3

Assay [5] relates to C57/B6 mice. Kind of assay: Exercise tolerance by treadmill testing of sedentary mice. It is filed as in vivo, mouse. Particulars: 20 mg/kg/day oral gavage, 5 weeks. Here is the method:
FIG. 6. Exercise tolerance measured by treadmill testing of C57/B6 mice before and after 5 weeks of either vehicle or thymol (20 mg/kg/day). A. Exercise protocol and tolerance after vehicle or thymol. B. Mean exercise tolerance pre and post treatment.
as §3

The test system of assay [6] is C57/B6 mice. Kind of assay: Core body temperature by infra-red thermal imaging after mild exercise. It is filed as in vivo, mouse. Particulars: sedentary C57/B6 mice, 20 mg/kg/day oral gavage, 5 weeks. The method, then: FIG. 7. Top: Representative thermal images of vehicle (left) and thymol (right) treated mice. Bottom: Mean data of temperature of upper and lower body in vehicle-treated vs thymol treated mice.
as §3

Take `NCCOB(c1ccccc1)c1ccccc1` [2-APB, reference compound]: the “intracellular (cytosolic) Ca2+ rise” value in the assay with C2C12 myotubes [1] is “reproducible and reversible increases”.

Consider `COc1cc(CNC(=O)CCCC/C=C/C(C)C)ccc1O` [Capsaicin, reference compound], for which the “intracellular (cytosolic) Ca2+ rise” value in the assay with C2C12 myotubes [1] is listed as “essentially no effect”.

As for `CC(C)C[C@H](NC(=O)c1cc2ccccc2s1)C(=O)N1CCN(C(=O)[C@H](CO)NS(=O)(=O)c2ccc(Cl)cc2Cl)CC1` [GSK101, reference compound], the “intracellular (cytosolic) Ca2+ rise” value in the assay with C2C12 myotubes [1] is “essentially no effect”.

For the compound `Cc1ccc(C(C)C)cc1O` [carvacrol, 2-methyl-5-isopropylphenol], in the assay on IGF-1, the “induction of IGF-1” value is on record as about 8 fold. For the same compound, the “effects on Ca2+ cycling” value in assay [2] is “clear effects”. For the same compound, the “intracellular (cytosolic) Ca2+ rise” value in the assay with C2C12 myotubes [1] is “reproducible and reversible increases”. For the same compound, the “induction of PGC1α” value with PGC1α is reported as 13.8 fold. The “myotube hypertrophy (increase in myotube diameter)” value in the assay on C2C12 myotubes [3] is on record as “significant myotube hypertrophy”.

Regarding `Cc1ccc(C(C)C)c(O)c1` [thymol, 2-isopropyl-5-methylphenol], the “induction of IGF-1” value in the assay with IGF-1 was about 4 fold. Moreover, the “potency at augmenting cytosolic Ca2+ relative to carvacrol” value in [2] (freshly isolated mouse FDB fibers) was “approximately twice as potent as carvacrol”. In assay [2], the “effects on Ca2+ cycling” value is “clear effects”. In the assay with C2C12 myotubes [1], the “potency at augmenting cytosolic Ca2+ relative to carvacrol” value was “approximately twice as potent as carvacrol”; the “intracellular (cytosolic) Ca2+ rise” value is “reproducible and reversible increases”. The gastrocnemius muscle weight result with C57/B6 mice [4] is listed as “increase”. For the same compound, in the assay with TRPV3 knock-out mice, the “augmented thermogenesis in TRPV3 knock-out mice” value is “abolished”, the “enhanced exercise capacity in TRPV3 knock-out mice” value is given as “abolished” and the “gastrocnemius hypertrophy in TRPV3 knock-out mice” value is “abolished”. In addition, the “induction of PGC1α” value in the assay on PGC1α came out at 3 fold. In addition, the “augmented exercise capacity over vehicle treated mice” value in the assay with C57/B6 mice [5] is recorded as 37%. In addition, in the assay with C57/B6 mice [6], the “core body temperature after mild exercise” value is given as “significant increase”.

These data come from patent publication US11135178B2, “Thymol and carvacol for use in medicine” (UNIVERSITY OF IOWA RESEARCH FOUNDATION, priority 2014, dated 2021).
